This test relates to L1210 leukemia ip in BDF1 mice, survival T/C. Kind of test: NCI In Vivo Anticancer Drug Screen. Data for tumor model L1210 Leukemia (intraperitoneal) in B6D2F1 (BDF1) mice. The following applies: higher = longer survival. In a few lines:
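Survival endpoint. Drug-treated group vs vehicle group, expressed as T divided by C. Tumor passaged by transplantation.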

Where [1] appears, read: endpoint: mean survival time, dose: 100.0 mg/kg/injection, schedule: Q01DX009 (ip), vehicle: saline.
Where [2] appears, read: endpoint: mean survival time, dose: 100.0 mg/kg/injection, schedule: Q04DX003 (ip), vehicle: saline.
The mark [3] stands for this setting: endpoint: mean survival time, dose: 200.0 mg/kg/injection, schedule: Q04DX003 (ip), vehicle: saline.
Where [4] appears, read: endpoint: mean survival time, dose: 400.0 mg/kg/injection, schedule: Q04DX003 (ip), vehicle: saline.
[5] abbreviates: endpoint: mean survival time, dose: 200.0 mg/kg/injection, schedule: Q01DX009 (ip), vehicle: saline.
Where [6] appears, read: endpoint: mean survival time, dose: 100.0 mg/kg/injection, schedule: Q01DX009 (ip), vehicle: saline with Tween-80.
The mark [7] stands for this setting: endpoint: mean survival time, dose: 100.0 mg/kg/injection, schedule: Q04DX003 (ip), vehicle: saline with Tween-80.
Where [8] appears, read: endpoint: mean survival time, dose: 200.0 mg/kg/injection, schedule: Q04DX003 (ip), vehicle: saline with Tween-80.

SMILES strings stand for the structures. “And” between values parts separate entries of the source, which are not always exact repeats. Identical values can stand only once. Toxic doses and inconclusive results are not listed.

For `O=N[O-].O=N[O-].[NH2-].[NH2-].[Pt+2]`, the T/C by setting is: (endpoint: mean survival time, dose: 12.5 mg/kg/injection, schedule: Q01DX009 (ip), vehicle: Klucel (hydroxypropylcellulose) (HPC)) 103 % of control; (endpoint: mean survival time, dose: 25.0 mg/kg/injection, schedule: Q01DX009 (ip), vehicle: Klucel (hydroxypropylcellulose) (HPC)) 106 % of control; (endpoint: mean survival time, dose: 50.0 mg/kg/injection, schedule: Q01DX009 (ip), vehicle: Klucel (hydroxypropylcellulose) (HPC)) 106 % of control.

As to `O=[N+]([O-])c1ccc(O)cc1`, the T/C is, setting by setting: (endpoint: mean survival time, dose: 12.5 mg/kg/injection, schedule: Q04DX003 (ip), vehicle: saline + alcohol) 103 % of control; (endpoint: mean survival time, dose: 25.0 mg/kg/injection, schedule: Q04DX003 (ip), vehicle: saline + alcohol) 100 % of control; (endpoint: mean survival time, dose: 50.0 mg/kg/injection, schedule: Q04DX003 (ip), vehicle: saline + alcohol) 108 % of control; (endpoint: mean survival time, dose: 100.0 mg/kg/injection, schedule: Q01DX001 (ip), vehicle: saline) 113 % of control; (endpoint: mean survival time, dose: 100.0 mg/kg/injection, schedule: Q04DX002 (ip), vehicle: saline with Tween-80) 102 % of control; (endpoint: mean survival time, dose: 200.0 mg/kg/injection, schedule: Q01DX001 (ip), vehicle: saline) 101 % of control. Under “endpoint: mean survival time, dose: 200.0 mg/kg/injection, schedule: Q04DX002 (ip), vehicle: saline with Tween-80”, the T/C is 91 % of control.

For the compound `CCOC(=O)c1ccc2cc(C(=O)c3ccccc3)ccc2n1`, the T/C reads like this: (endpoint: mean survival time, dose: 50.0 mg/kg/injection, schedule: Q01DX009 (ip), vehicle: saline) 94 % of control; under setting [1], 100 % of control; under setting [2], 91 % of control; under setting [3], 91 % of control; under setting [4], 93 % of control.

As for `CC(c1ccccc1O)C1CCCCC1N=O` (stereo unspecified), the T/C runs as follows: (endpoint: mean survival time, dose: 100.0 mg/kg/injection, schedule: Q04DX002 (ip), vehicle: Klucel (hydroxypropylcellulose) (HPC)) 105 % of control; (endpoint: mean survival time, dose: 200.0 mg/kg/injection, schedule: Q04DX002 (ip), vehicle: Klucel (hydroxypropylcellulose) (HPC)) 102 % of control; (endpoint: mean survival time, dose: 400.0 mg/kg/injection, schedule: Q04DX002 (ip), vehicle: Klucel (hydroxypropylcellulose) (HPC)) 98 % of control.

Turning to `[C](#Cc1ccccc1)[Hg][C]#Cc1ccccc1`, the T/C is 103 % of control (endpoint: mean survival time, dose: 100.0 mg/kg/injection, schedule: Q04DX003 (ip), vehicle: Klucel (hydroxypropylcellulose) (HPC)); 94 % of control (endpoint: mean survival time, dose: 200.0 mg/kg/injection, schedule: Q04DX003 (ip), vehicle: Klucel (hydroxypropylcellulose) (HPC)); 96 % of control (endpoint: mean survival time, dose: 400.0 mg/kg/injection, schedule: Q04DX003 (ip), vehicle: Klucel (hydroxypropylcellulose) (HPC)).

`CC1CC(Cc2cccc3ccccc23)C(=O)O1` (stereo unspecified): the T/C was 102 % of control (endpoint: mean survival time, dose: 37.5 mg/kg/injection, schedule: Q01DX009 (ip), vehicle: saline); 97 % of control (endpoint: mean survival time, dose: 75.0 mg/kg/injection, schedule: Q01DX001 (ip), vehicle: saline); 98 % of control (endpoint: mean survival time, dose: 75.0 mg/kg/injection, schedule: Q01DX009 (ip), vehicle: saline); 96 % of control (endpoint: mean survival time, dose: 75.0 mg/kg/injection, schedule: Q04DX003 (ip), vehicle: saline); 97 % of control (endpoint: mean survival time, dose: 150.0 mg/kg/injection, schedule: Q01DX001 (ip), vehicle: saline); 96 % of control (endpoint: mean survival time, dose: 150.0 mg/kg/injection, schedule: Q01DX009 (ip), vehicle: saline). In addition, the T/C is, setting by setting: (endpoint: mean survival time, dose: 150.0 mg/kg/injection, schedule: Q04DX003 (ip), vehicle: saline) 94 % of control; (endpoint: mean survival time, dose: 300.0 mg/kg/injection, schedule: Q01DX001 (ip), vehicle: saline) 98 % of control; (endpoint: mean survival time, dose: 300.0 mg/kg/injection, schedule: Q04DX003 (ip), vehicle: saline) 94 % of control.

In the case of `O=C(O)CNCc1cccc(Br)c1`, the T/C was 103 % of control under setting [1]; 95 % of control under setting [2]; 92 % of control under setting [5]; 113 % of control under setting [3]; 98 % of control (endpoint: mean survival time, dose: 400.0 mg/kg/injection, schedule: Q01DX009 (ip), vehicle: saline); 98 % of control under setting [4].

`CC(=O)Nc1nc(Cl)c([N+](=O)[O-])c(SCc2ccccc2)n1`: the T/C is 90 % of control (endpoint: mean survival time, dose: 25.0 mg/kg/injection, schedule: Q01DX009 (ip), vehicle: saline with Tween-80); 93 % of control and 97 % of control (endpoint: mean survival time, dose: 50.0 mg/kg/injection, schedule: Q01DX009 (ip), vehicle: saline with Tween-80); 101 % of control and 104 % of control under setting [6]; 87 % of control under setting [7]; 98 % of control under setting [8].

In the case of `CCC(CO)NC(=O)Nc1cccc2ccccc12` (stereo unspecified), the T/C is, setting by setting: (endpoint: mean survival time, dose: 50.0 mg/kg/injection, schedule: Q04DX003 (ip), vehicle: saline with Tween-80) 105 % of control; under setting [6], 102 % of control; under setting [7], 105 % of control; (endpoint: mean survival time, dose: 200.0 mg/kg/injection, schedule: Q01DX009 (ip), vehicle: saline with Tween-80) 96 % of control; under setting [8], 100 % of control; (endpoint: mean survival time, dose: 400.0 mg/kg/injection, schedule: Q01DX009 (ip), vehicle: saline with Tween-80) 96 % of control. Further, the T/C (endpoint: mean survival time, dose: 400.0 mg/kg/injection, schedule: Q04DX003 (ip), vehicle: saline with Tween-80) is 94 % of control.

`C/C(=N\N=C(N)N)c1ccc(NC(=O)Nc2ccc(/C(C)=N/N=C(N)N)cc2)cc1`: the T/C is, setting by setting: (endpoint: mean survival time, dose: 10.0 mg/kg/injection, schedule: Q01DX009 (ip), vehicle: saline) 109 % of control and 124 % of control; (endpoint: mean survival time, dose: 18.0 mg/kg/injection, schedule: Q01DX009 (ip), vehicle: water) 187 % of control; (endpoint: mean survival time, dose: 20.0 mg/kg/injection, schedule: Q01DX005 (ip), vehicle: saline) 157 % of control; (endpoint: mean survival time, dose: 30.0 mg/kg/injection, schedule: Q01DX009 (ip), vehicle: carboxymethylcellulose (CMC)) 152 % of control; (endpoint: mean survival time, dose: 30.0 mg/kg/injection, schedule: Q01DX009 (ip), vehicle: water) 188 % of control; (endpoint: mean survival time, dose: 40.0 mg/kg/injection, schedule: Q01DX005 (ip), vehicle: saline) 150 % of control. Besides, the T/C (endpoint: mean survival time, dose: 40.0 mg/kg/injection, schedule: Q01DX009 (ip), vehicle: water) was 174 % of control; the T/C (endpoint: mean survival time, dose: 50.0 mg/kg/injection, schedule: Q01DX009 (ip), vehicle: carboxymethylcellulose (CMC)) was 189 % of control; the T/C (endpoint: mean survival time, dose: 50.0 mg/kg/injection, schedule: Q01DX009 (ip), vehicle: water) is 259 % of control; the T/C (endpoint: mean survival time, dose: 65.0 mg/kg/injection, schedule: Q01DX009 (ip), vehicle: water) is 167 % of control; the T/C (endpoint: mean survival time, dose: 80.0 mg/kg/injection, schedule: Q01DX005 (ip), vehicle: saline) was 177 % of control; the T/C (endpoint: mean survival time, dose: 83.3 mg/kg/injection, schedule: Q01DX009 (ip), vehicle: carboxymethylcellulose (CMC)) is 257 % of control. The T/C (endpoint: mean survival time, dose: 83.3 mg/kg/injection, schedule: Q01DX009 (ip), vehicle: water) is 243 % of control; the T/C (endpoint: mean survival time, dose: 108.0 mg/kg/injection, schedule: Q01DX015 (ip), vehicle: saline) is 172 % of control; the T/C (endpoint: mean survival time, dose: 160.0 mg/kg/injection, schedule: Q01DX005 (ip), vehicle: saline) was 226 % of control; the T/C (endpoint: mean survival time, dose: 180.0 mg/kg/injection, schedule: Q01DX015 (ip), vehicle: saline) was 207 % of control; the T/C (endpoint: mean survival time, dose: 400.0 mg/kg/injection, schedule: Q01DX001 (ip), vehicle: other) is 157 % of control; the T/C (endpoint: mean survival time, dose: 600.0 mg/kg/injection, schedule: Q01DX001 (ip), vehicle: other) is 188 % of control. For the same compound, the T/C (endpoint: median survival time, dose: 50.0 mg/kg/injection, schedule: Q01DX009 (ip), vehicle: saline) was 162 % of control; the T/C (endpoint: median survival time, dose: 60.0 mg/kg/injection, schedule: Q03HX024 (ip), vehicle: water) is 228 % of control; the T/C (endpoint: median survival time, dose: 75.0 mg/kg/injection, schedule: Q03HX024 (ip), vehicle: water) is 166 % of control; the T/C (endpoint: median survival time, dose: 90.0 mg/kg/injection, schedule: Q03HX024 (ip), vehicle: water) is 284 % of control; the T/C (endpoint: median survival time, dose: 100.0 mg/kg/injection, schedule: Q01DX009 (ip), vehicle: saline) is 215 % of control and 262 % of control; the T/C (endpoint: median survival time, dose: 105.0 mg/kg/injection, schedule: Q03HX024 (ip), vehicle: water) is 168 % of control. The T/C is, setting by setting: (endpoint: median survival time, dose: 120.0 mg/kg/injection, schedule: Q03HX024 (ip), vehicle: water) 303 % of control; (endpoint: median survival time, dose: 200.0 mg/kg/injection, schedule: Q01DX009 (ip), vehicle: saline) 260 % of control and 312 % of control.

For `Nc1nc(N)c2nc3c(nc2n1)CN(c1ccc(C(=O)O)cc1)C3=O`, the T/C was 104 % of control under setting [1] and 89 % of control under setting [5].

Source of the values: PubChem BioAssay AID248 (DTP/NCI, 2004).
